Reference: BigSolDB 2.1

With `COC(=O)Nc1nc2ccc(S(=O)c3ccccc3)cc2[nH]1` (configuration not stated) the solubility (mole fraction) (in 2-ethoxyethanol, 278.15 K) was 0.00043, the solubility (mole fraction) (in 2-ethoxyethanol, 283.15 K) was 0.000518 and the solubility (mole fraction) (in 2-ethoxyethanol, 288.15 K) was 0.000583. It also gave a solubility (mole fraction) (in 2-ethoxyethanol, 293.15 K) of 0.000682, a solubility (mole fraction) (in 2-ethoxyethanol, 298.15 K) of 0.00079 and a solubility (mole fraction) (in 2-ethoxyethanol, 303.15 K) of 0.000908. The solubility (mole fraction) (in 2-ethoxyethanol, 308.15 K) was 0.00104, the solubility (mole fraction) (in 2-ethoxyethanol, 313.15 K) was 0.00118 and the solubility (mole fraction) (in 2-ethoxyethanol, 318.15 K) was 0.00132. The solubility (mole fraction) (in 2-ethoxyethanol, 323.15 K) was 0.00144, the solubility (mole fraction) (in 2-methoxyethanol, 278.15 K) was 0.000687 and the solubility (mole fraction) (in 2-methoxyethanol, 283.15 K) was 0.000777. It also gave a solubility (mole fraction) (in 2-methoxyethanol, 288.15 K) of 0.000887, a solubility (mole fraction) (in 2-methoxyethanol, 293.15 K) of 0.00104 and a solubility (mole fraction) (in 2-methoxyethanol, 298.15 K) of 0.00118. The solubility (mole fraction) (in 2-methoxyethanol, 303.15 K) was 0.00133, the solubility (mole fraction) (in 2-methoxyethanol, 308.15 K) was 0.0015 and the solubility (mole fraction) (in 2-methoxyethanol, 313.15 K) was 0.00173. It also gave a solubility (mole fraction) (in 2-methoxyethanol, 318.15 K) of 0.00191, a solubility (mole fraction) (in 2-methoxyethanol, 323.15 K) of 0.00215 and a solubility (mole fraction) (in 2-propoxyethanol, 278.15 K) of 0.000338. It also gave a solubility (mole fraction) (in 2-propoxyethanol, 283.15 K) of 0.000402, a solubility (mole fraction) (in 2-propoxyethanol, 288.15 K) of 0.000476 and a solubility (mole fraction) (in 2-propoxyethanol, 293.15 K) of 0.000554. It also gave a solubility (mole fraction) (in 2-propoxyethanol, 298.15 K) of 0.000629, a solubility (mole fraction) (in 2-propoxyethanol, 303.15 K) of 0.000727 and a solubility (mole fraction) (in 2-propoxyethanol, 308.15 K) of 0.000802. It also gave a solubility (mole fraction) (in 2-propoxyethanol, 313.15 K) of 0.0009, a solubility (mole fraction) (in 2-propoxyethanol, 318.15 K) of 0.00103 and a solubility (mole fraction) (in 2-propoxyethanol, 323.15 K) of 0.00117. For the same molecule, the solubility (mole fraction) (in DMAc, 278.15 K) was 0.00381, the solubility (mole fraction) (in DMAc, 283.15 K) was 0.00471 and the solubility (mole fraction) (in DMAc, 288.15 K) was 0.00576. The solubility (mole fraction) (in DMAc, 293.15 K) was 0.00659, the solubility (mole fraction) (in DMAc, 298.15 K) was 0.00821 and the solubility (mole fraction) (in DMAc, 303.15 K) was 0.00976. It also gave a solubility (mole fraction) (in DMAc, 308.15 K) of 0.0112, a solubility (mole fraction) (in DMAc, 313.15 K) of 0.0125 and a solubility (mole fraction) (in DMAc, 318.15 K) of 0.0147. The solubility (mole fraction) (in DMAc, 323.15 K) was 0.017, the solubility (mole fraction) (in DMF, 278.15 K) was 0.00284 and the solubility (mole fraction) (in DMF, 283.15 K) was 0.00329. It also gave a solubility (mole fraction) (in DMF, 288.15 K) of 0.00363, a solubility (mole fraction) (in DMF, 293.15 K) of 0.00408 and a solubility (mole fraction) (in DMF, 298.15 K) of 0.00454. The solubility (mole fraction) (in DMF, 303.15 K) was 0.00502, the solubility (mole fraction) (in DMF, 308.15 K) was 0.00576 and the solubility (mole fraction) (in DMF, 313.15 K) was 0.00632. It also gave a solubility (mole fraction) (in DMF, 318.15 K) of 0.00718, a solubility (mole fraction) (in DMF, 323.15 K) of 0.00796 and a solubility (mole fraction) (in DMSO, 293.15 K) of 0.00925. For the same molecule, the solubility (mole fraction) (in DMSO, 298.15 K) was 0.0109, the solubility (mole fraction) (in DMSO, 303.15 K) was 0.012 and the solubility (mole fraction) (in DMSO, 308.15 K) was 0.0138. The solubility (mole fraction) (in DMSO, 313.15 K) was 0.0157, the solubility (mole fraction) (in DMSO, 318.15 K) was 0.0175 and the solubility (mole fraction) (in DMSO, 323.15 K) was 0.0194. The solubility (mole fraction) (in diglyme, 278.15 K) was 0.00015, the solubility (mole fraction) (in diglyme, 283.15 K) was 0.000174 and the solubility (mole fraction) (in diglyme, 288.15 K) was 0.000203. For the same molecule, the solubility (mole fraction) (in diglyme, 293.15 K) was 0.000241, the solubility (mole fraction) (in diglyme, 298.15 K) was 0.00028 and the solubility (mole fraction) (in diglyme, 303.15 K) was 0.000321. It also gave a solubility (mole fraction) (in diglyme, 308.15 K) of 0.000362, a solubility (mole fraction) (in diglyme, 313.15 K) of 0.000406 and a solubility (mole fraction) (in diglyme, 318.15 K) of 0.000454. It also gave a solubility (mole fraction) (in diglyme, 323.15 K) of 0.000502, a solubility (mole fraction) (in methanol, 278.15 K) of 8.35e-05 and a solubility (mole fraction) (in methanol, 283.15 K) of 9.72e-05. It also gave a solubility (mole fraction) (in methanol, 288.15 K) of 0.00012, a solubility (mole fraction) (in methanol, 293.15 K) of 0.000148 and a solubility (mole fraction) (in methanol, 298.15 K) of 0.00017. It also gave a solubility (mole fraction) (in methanol, 303.15 K) of 0.000201, a solubility (mole fraction) (in methanol, 308.15 K) of 0.000242 and a solubility (mole fraction) (in methanol, 313.15 K) of 0.000287. It also gave a solubility (mole fraction) (in methanol, 318.15 K) of 0.000332 and a solubility (mole fraction) (in methanol, 323.15 K) of 0.000389.
